The test system of this experiment is severe itching. Here is the method: One capsule of a κ-opioid agonist 17-cyclopropylmethyl-3, 14β-dihydroxy-4,5α-epoxy-6β-(N-methyl-trans-3-(3-furyl)acrylamide) morphinan hydrochloride capsule (10 μg/body) was administered to each of the selected patients. […] To quantitatively determine the severity of itching, visual analogue scale (VAS) was employed, in which the severity of itching was determined on a straight line of 0 to 100 mm where no itching was rated as “0” and the supposable most severe itching was rated as “100”.

In the case of `CN(C(=O)/C=C/c1ccoc1)[C@@H]1CC[C@@]2(O)[C@H]3Cc4ccc(O)c5c4[C@@]2(CCN3CC2CC2)[C@H]1O5.Cl` (relative stereo) [17-cyclopropylmethyl-3, 14β-dihydroxy-4,5α-epoxy-6β-(N-methyl-trans-3-(3-furyl)acrylamide) morphinan hydrochloride], where the note is “after 4 to 24 hours from the administration, one capsule 10 μg/body, four patients with severe itching, VAS 75 mm before administration, scale 0 to 100 mm”, the “visual analogue scale (VAS) of severity of itching, mean of the four subjects” value was found to be 0 mm. Moreover, for the setting “after two hours from the administration, all administered patients (four), one capsule 10 μg/body”, the relief of itching result was “itching was relieved”. Besides, for the setting “as shown in Example 2”, the “antipruritic effect on administration (summary statement referring to Example 2)” value is “apparent antipruritic effect”. Also, the “duration of antipruritic effect (continued until)” value (time from the administration, all administered patients (four), one capsule 10 μg/body) stood at 24 h.

The values above are taken from US6984493B1, “Method for examining the involvement of opioid peptides in prurtis” (Toray Industries, Inc., priority 2000, dated 2006).
